Assay results from paper PMC4418665, “Cyclization of the Urokinase Receptor-Derived Ser-Arg-Ser-Arg-Tyr Peptide Generates a Potent Inhibitor of Trans-Endothelial Migration of Monocytes” (PLoS ONE, 2015).
Peptide text beside a SMILES is read from it.

Columns and labels:
[1] = test system: human primary monocytes; assay: Primary monocyte migration in Boyden chambers; type: cell-based; details: 10 nM peptide, 90 minutes
[2] = test system: THP-1 cells; type: cell-based, human
Method: The ability of [SRSRY] peptide to affect THP-1 cell migration was analyzed in Boyden chambers using 10 nM fMLF or 10 nM SRSRY as chemoattractants. […] Inhibitory effect of [SRSRY] is dose-dependent, it starts in the high fM range, it seems to level off in the μM range and reaches an overall 50% reduction at 10 pM (Fig 4B). […] The mechanisms by which monocytes move when subjected to a chemoattractant gradient, involve changes in cytoskeletal organization, which provide both protrusive and contractile forces necessary for cell migration. To gain some insights into the cellular effects exerted by peptide [SRSRY], PMA-differentiated THP-1 cells were grown adherent onto a glass slide, exposed to diluents (CTL), 10 nM fMLF gradient plus/minus 10 nM [SRSRY] or 10 nM [RSSYR] in a DUNN chamber for 6 hours as described, and then stained with rhodamine-phalloidin. A total of 100 cells/sample that translocated to the area corresponding to the ring separating the inner and outer chambers were counted and their cytoskeletal organization examined with a fluorescence-inverted microscope. […] Conversely, the addition of peptide [SRSRY] to the fMLF gradient reduced cell elongation and alignment with the appearance of F-actin linear distribution along the plasma membranes in the 60% of cell population (Fig 4C). In order to verify whether the inhibitory effect of [SRSRY] also occurs on primary monocytes and/or macrophages, human monocytes and macrophages were subjected to cell migration assays in Boyden and DUNN chambers, respectively. […] Unlike [RSSYR], 10 nM [SRSRY] reduced both fMLF- and SRSRY- directed monocyte migration by 50% and 49%, respectively. Next, primary macrophages were subjected to cell migration assay in DUNN chamber as above described. After 6 hours incubation, a total of 100 cells/sample that translocated to the area corresponding to the ring separating the inner and outer chambers were counted. Macrophage exposure to 10 nM fMLF elicited a considerable cell migration, reaching 230% of the basal cell migration (CTL), that was unchanged by 10 nM [[…]). […] These findings indicate that unlike linear SRSRY, the cyclic form of the chemotactic sequence of uPAR inhibits monocyte motility and prevents cytoskeletal re-organization occurring during migration of macrophages. {[…]] inhibits migration of monocytes and macrophages in a dose-dependent manner causing a marked inhibition of fMLF-dependent cytoskeletal re-organization. A. THP-1 cells (1x10^5 cells/well) were allowed to migrate for 90 minutes at 37°C, 5% CO2 in Boyden chambers toward 10 nM fMLF, or 10 nM SRSRY in the presence of diluents (None), 10 nM [RSSYR] or 10 nM [SRSRY]. […] Data are expressed as the means ± SD of three independent experiments, performed in duplicate. *Statistical significance against None with p<0.001. B. THP-1 and PMA-stimulated THP-1 cell migration toward 10 nM fMLF plus increasing concentrations of [SRSRY] in Boyden chambers. The extent of cell migration was expressed as a percentage of the net fMLF-dependent cell migration, considered as 100%. Data are expressed as the means ± SD of three independent experiments, performed in duplicate. C. Representative images of PMA-stimulated THP-1 cells allowed to migrate in a DUNN chamber toward diluents (CTL), or a fMLF chemotactic gradient, in the absence (None) or presence of 10 nM [SRSRY] or [RSSYR] peptides and stained with rhodamine-phalloidin. Scale bar: 10 μm. Original magnifications: 630x. D-E. Primary monocytes (1x10^5 cells/well) were allowed to migrate for 90 minutes at 37°C, 5% CO2 in Boyden chambers toward 10 nM fMLF (D), or 10 nM […]) in the presence of diluents (None), 10 nM [RSSYR] or 10 nM [SRSRY]. […] Data are expressed as the means ± SD of three independent experiments, performed in duplicate. *Statistical significance against None with p<0.001; **Statistical significance against None with p<0.0001. […]

[3] = test system: RBL-2H3/ETFR cells; assay: RBL-2H3/ETFR cell proliferation, xCELLigence; type: cell-based, rat; details: 10 μM peptide, up to 90 hours, medium replaced every 24 hours, quadruplicate
[4] = 10 nM peptide, 90 minutes, Boyden chamber

Structure (SMILES): N=C(N)NCCC[C@@H]1NC(=O)[C@H](CO)NC(=O)[C@H](Cc2ccc(O)cc2)NC(=O)[C@H](CCCNC(=N)N)NC(=O)[C@H](CO)NC1=O [[SRSRY], [Ser-Arg-Ser-Arg-Tyr]] (cyclo(RSRYS))
- reduction of SRSRY-directed primary monocyte migration ([1]; 10 nM SRSRY): 49%
- reduction of fMLF-directed primary monocyte migration ([1]; 10 nM fMLF): 50%
- reduction of THP-1 monocyte migration toward 10 nM SRSRY [2, 4]: 68%
- reduction of THP-1 monocyte migration toward 10 nM fMLF [2, 4]: 58%
- IC50 ([2]; 6 h): 0.01 nM
- RBL-2H3/ETFR cell growth [3]: did not modify cell growth up to 90 hours
